Measurements from article PMC12670164, “In vitro and clinical data demonstrate negligible risk of drug–drug interactions with opelconazole, a novel inhaled antifungal agent” (Journal of Antimicrobial Chemotherapy, 2025).
Where two headings read alike, the source gives them in different places.

How the values were obtained:
P-gp = molecular target: T1, P-gp (Homo sapiens, UniProt P08183); assay: Transporter inhibition; type: in vitro ADME
T1 construct: expressed in transfected cells
Protocol: (§1) Human transporter protein interactions with opelconazole as a potential substrate and/or inhibitor were assessed for the following key carrier transporters: organic anion transporters, OAT1 and OAT3; organic cation transporters, OCT1 and OCT2; OATP1B1 and OATP1B3; multidrug and toxin extrusion, MATE-1 and MATE2-K; key ATP-binding cassette (ABC) transporters including P-gp, breast cancer resistance protein (BCRP) and bile salt export pump (BSEP). Two concentrations of opelconazole, 0.5 and 5 μM, were tested using MDCKII cells, human embryonic kidney 293 cells and BSEP-transfected sf9 membrane vesicles and then analysed by LC-tandem MS to determine transporter inhibition and whether opelconazole was a transporter substrate. The viability of experimental test systems was confirmed with controls and known probe substrates and probe inhibitors.

OATP1B3 = molecular target: T2, OATP1B3 (Homo sapiens, UniProt Q9NPD5); assay: Transporter inhibition; type: in vitro ADME; details: 0.5 and 5 μM tested
T2 construct: expressed in transfected cells
T2 sequence (Q9NPD5 1-702): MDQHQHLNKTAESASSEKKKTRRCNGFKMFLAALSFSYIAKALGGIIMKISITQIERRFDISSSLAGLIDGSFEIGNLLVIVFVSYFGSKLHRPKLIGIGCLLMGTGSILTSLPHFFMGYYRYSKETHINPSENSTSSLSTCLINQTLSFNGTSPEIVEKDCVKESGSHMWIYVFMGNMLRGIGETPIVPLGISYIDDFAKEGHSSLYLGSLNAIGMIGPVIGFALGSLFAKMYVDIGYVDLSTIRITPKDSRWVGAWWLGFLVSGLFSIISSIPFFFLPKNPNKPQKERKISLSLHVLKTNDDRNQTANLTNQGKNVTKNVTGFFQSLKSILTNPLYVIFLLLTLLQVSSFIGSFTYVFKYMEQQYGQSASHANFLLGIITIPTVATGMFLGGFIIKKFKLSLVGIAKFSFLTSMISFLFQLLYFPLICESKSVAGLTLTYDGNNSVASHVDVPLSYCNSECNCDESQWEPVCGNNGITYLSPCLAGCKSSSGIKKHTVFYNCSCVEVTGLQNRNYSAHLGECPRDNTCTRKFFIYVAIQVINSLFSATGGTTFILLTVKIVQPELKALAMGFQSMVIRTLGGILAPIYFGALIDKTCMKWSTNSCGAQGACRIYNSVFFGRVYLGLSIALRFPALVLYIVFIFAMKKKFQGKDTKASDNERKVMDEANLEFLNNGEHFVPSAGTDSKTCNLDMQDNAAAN
Protocol: as §1

CYP2C9 = CYP2C9 (Homo sapiens, UniProt P11712); assay: Reaction phenotyping with recombinant CYP enzymes (opelconazole as substrate); type: in vitro ADME; details: incubated with 0.01 and 0.1 µM opelconazole
Sequence of CYP2C9 (P11712 whole entry): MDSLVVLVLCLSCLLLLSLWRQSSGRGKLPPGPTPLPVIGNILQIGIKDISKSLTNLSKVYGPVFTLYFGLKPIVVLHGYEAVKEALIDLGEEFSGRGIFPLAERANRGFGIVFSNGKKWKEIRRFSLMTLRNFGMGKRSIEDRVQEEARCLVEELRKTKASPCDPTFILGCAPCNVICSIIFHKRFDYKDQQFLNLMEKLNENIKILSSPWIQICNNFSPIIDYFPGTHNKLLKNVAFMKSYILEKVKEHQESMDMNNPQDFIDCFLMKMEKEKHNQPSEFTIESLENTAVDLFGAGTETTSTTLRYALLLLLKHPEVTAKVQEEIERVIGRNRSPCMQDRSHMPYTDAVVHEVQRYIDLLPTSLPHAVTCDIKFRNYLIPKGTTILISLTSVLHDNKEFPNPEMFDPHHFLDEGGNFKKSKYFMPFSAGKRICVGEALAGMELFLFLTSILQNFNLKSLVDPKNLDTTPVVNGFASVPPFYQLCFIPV
Protocol: The testing of opelconazole as a potential substrate of CYP1A2, 2B6, 2C8, 2C9, 2C19, 2D6 and 3A4 was determined in vitro using recombinant CYP enzymes. Two concentrations of opelconazole (0.01 and 0.1 µM) were tested with each of the seven CYPs.
The relative contributions of CYP3A4 and CYP2C9 were ∼75% and 25%, respectively, when incubated with 0.01 and 0.1 µM opelconazole.

[1] = tested on: OAT1, OAT3, OCT1, OCT2, OATP1B1, OATP1B3, MATE-1, MATE2-K, P-gp, BCRP, BSEP; assay: Opelconazole as substrate of carrier transporters; type: in vitro ADME, human; details: 0.5 and 5 μM; MDCKII, HEK293 cells, BSEP sf9 vesicles
Protocol: as §1

[2] = design: method as in PMID 33340279; details: available PK data, cited from earlier work
CYP3A4 = tested on: CYP3A4
Protocol: The potential for opelconazole to act as an inducer of CYP isoforms CYP1A2, CYP2B6 and CYP3A4 was assessed in vitro using an mRNA endpoint across three donors in cryopreserved human hepatocytes.
A cytotoxicity assessment using MTT was performed in one of the three donors used for the induction studies prior to dosing.

T1 sequence (P08183 whole entry): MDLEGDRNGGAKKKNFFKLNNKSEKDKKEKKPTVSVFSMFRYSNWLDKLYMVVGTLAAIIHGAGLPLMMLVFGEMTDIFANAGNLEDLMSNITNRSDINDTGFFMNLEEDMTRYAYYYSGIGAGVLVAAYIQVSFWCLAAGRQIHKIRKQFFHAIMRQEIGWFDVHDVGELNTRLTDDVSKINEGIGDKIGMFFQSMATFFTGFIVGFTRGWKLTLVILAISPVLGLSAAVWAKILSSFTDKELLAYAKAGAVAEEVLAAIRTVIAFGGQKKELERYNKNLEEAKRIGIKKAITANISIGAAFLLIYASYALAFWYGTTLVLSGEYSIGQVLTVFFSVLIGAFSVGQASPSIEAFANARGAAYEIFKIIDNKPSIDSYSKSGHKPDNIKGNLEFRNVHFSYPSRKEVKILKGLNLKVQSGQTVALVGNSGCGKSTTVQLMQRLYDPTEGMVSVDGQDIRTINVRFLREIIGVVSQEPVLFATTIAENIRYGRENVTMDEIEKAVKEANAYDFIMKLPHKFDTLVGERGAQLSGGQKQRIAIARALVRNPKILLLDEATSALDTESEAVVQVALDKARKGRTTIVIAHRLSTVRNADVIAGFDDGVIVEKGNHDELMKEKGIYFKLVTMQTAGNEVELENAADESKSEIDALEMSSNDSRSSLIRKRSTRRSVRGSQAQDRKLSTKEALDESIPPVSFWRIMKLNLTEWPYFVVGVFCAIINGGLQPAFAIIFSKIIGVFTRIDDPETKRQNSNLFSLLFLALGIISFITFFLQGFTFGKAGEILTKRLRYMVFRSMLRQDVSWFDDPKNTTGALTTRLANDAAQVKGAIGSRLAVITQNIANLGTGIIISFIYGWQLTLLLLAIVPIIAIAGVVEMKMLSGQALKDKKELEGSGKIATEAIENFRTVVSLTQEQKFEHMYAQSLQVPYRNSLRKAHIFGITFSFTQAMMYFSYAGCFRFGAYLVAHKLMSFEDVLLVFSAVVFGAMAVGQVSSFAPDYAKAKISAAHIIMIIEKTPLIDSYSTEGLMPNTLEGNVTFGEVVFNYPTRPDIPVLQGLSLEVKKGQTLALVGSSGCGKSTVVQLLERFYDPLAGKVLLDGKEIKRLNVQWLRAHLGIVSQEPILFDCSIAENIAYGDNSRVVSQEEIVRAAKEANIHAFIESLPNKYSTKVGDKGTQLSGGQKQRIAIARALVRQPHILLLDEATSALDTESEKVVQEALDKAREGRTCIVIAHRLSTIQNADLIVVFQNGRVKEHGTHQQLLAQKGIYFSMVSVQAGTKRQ

Cc1cc(N2CCN(c3ccc(C(=O)Nc4ccc(F)cc4)cc3)CC2)ccc1OC[C@@H]1CO[C@@](Cn2cncn2)(c2ccc(F)cc2F)C1 [opelconazole]
inhibitory interaction with P-gp (P-gp; 0.5 μM opelconazole): negligible inhibitory interactions
inhibition of P-gp relative to solvent control (P-gp; 5 μM opelconazole): 52%
inhibitory interaction with OATP1B3 (OATP1B3): negligible inhibitory interactions
relative contribution of CYP2C9 to metabolism of opelconazole (CYP2C9): ~25%
substrate of carrier transporters [1]: not a substrate
Cmax (low systemic exposure) [2]: 1 ng/mL
Cmax ([2]; read-out: Cmax (low systemic exposure)): 1.6 nM
CYP3A4 mRNA expression increase (CYP3A4; donor 1, only at 0.3 μM, 72 h): 2.17 fold
CYP3A4 mRNA expression increase (CYP3A4; donors 2 and 3, any concentration (0.012–3 μM)): < 2 fold
